Data as given in paper PMC11846289, “New tetrahydroisoquinolines bearing nitrophenyl group targeting HSP90 and RET enzymes: synthesis, characterization and biological evaluation” (BMC Chemistry, 2025).
Values after ≈ are worked out from the molar mass of the structure shown.

Legend:
[1] = system: HCT116 (colon carcinoma human); assay: one spot 100 µg/ml cytotoxicity, HCT116; assay type: cell-based; conditions: for inhibition at 100 µg/mL: Homo sapiens, HCT-116, percent inhibition, read-out: one spot concentration inhibition, HCT116
[2] = system: HEPG2 (human liver carcinoma); assay: one spot 100 µg/ml cytotoxicity, HEPG2; assay type: cell-based; conditions: for inhibition at 100 µg/mL: Homo sapiens, HepG2, percent inhibition, read-out: one spot concentration inhibition, HEPG2
[3] = system: HUH7 (human liver carcinoma); assay: one spot 100 µg/ml cytotoxicity, HUH7; assay type: cell-based; conditions: for inhibition at 100 µg/mL: Homo sapiens, Huh-7, percent inhibition, read-out: one spot concentration inhibition, HUH7
[4] = system: MG-63 (human osteosarcoma); assay: one spot 100 µg/ml cytotoxicity, MG-63; assay type: cell-based; conditions: for inhibition at 100 µg/mL: Homo sapiens, MG-63, percent inhibition, read-out: one spot concentration inhibition, MG-63
[5] = system: MCF7 (human breast carcinoma); assay: one spot 100 µg/ml cytotoxicity, MCF7; assay type: cell-based; conditions: for inhibition at 100 µg/mL: Homo sapiens, MCF7, percent inhibition, read-out: one spot concentration inhibition, MCF7
[6] = system: normal human skin cell line (HSF); assay: one spot 100 µg/ml cytotoxicity, normal skin cell line HSF; assay type: cell-based; conditions: for cytotoxicity at 100 µg/mL / inhibition at 100 µg/mL: Homo sapiens; for cytotoxicity at 100 µg/mL: HSF, read-out: Inhibition percent of HSF cell line; for inhibition at 100 µg/mL: read-out: one spot concentration inhibition, HSF
[7] = system: A549 (human lung carcinoma); assay: one spot 100 µg/ml cytotoxicity, A549; assay type: cell-based; conditions: for inhibition at 100 µg/mL: Homo sapiens, A549, percent inhibition, read-out: one spot concentration inhibition, A549
[8] = system: H460 (human lung carcinoma); assay: one spot 100 µg/ml cytotoxicity, H460; assay type: cell-based; conditions: for inhibition at 100 µg/mL: Homo sapiens, NCI-H460, percent inhibition, read-out: one spot concentration inhibition, H460
[9] = system: MCF7 cell line; assay: MTT in vitro cytotoxicity, MCF7; assay type: cell-based, human; conditions: for Selectivity Index = IC50 of HSF/ IC50 of MCF7: HSF vs MCF7; for IC50: Homo sapiens, read-out: IC50 for MCF7 ± S.D
Method: (§1) Using the MTT test method, the in vitro cytotoxicity of our synthesized compounds at different doses ranging from […] was examined in two cell lines, HEPG2 and MCF7, to examine 50% of the cancer cells dying.
(§2) Some of the synthesized compounds were tested as anticancer activity for the IC50 against two cell lines HEPG2 and MCF7 cells according to method. All cell lines were obtained from national cancer institute, Cairo—Egypt.

[10] = system: HEPG2 cell line; assay: MTT in vitro cytotoxicity, HEPG2; assay type: cell-based, human; conditions: for Selectivity Index = IC50 of HSF/IC50 of HEPG2: HSF vs HEPG2; for IC50: Homo sapiens, read-out: IC50 for HEPG2 ± S.D
Method: as §1, §2

[11] = system: HSF; assay: IC50 against normal cell line HSF; assay type: cell-based, human; conditions: normal skin cell line HSF; for IC50: Homo sapiens, read-out: IC50 FOR HSF ± S.D.
[12] = system: CACO2 (colon carcinoma human); assay: one spot 100 µg/ml cytotoxicity, CACO2; assay type: cell-based; conditions: for inhibition at 100 µg/mL: Homo sapiens, Caco-2, percent inhibition, read-out: one spot concentration inhibition, CACO2

SMILES	inhibition at 100 µg/mL [1] [%]	inhibition at 100 µg/mL [2] [%]	inhibition at 100 µg/mL [3] [%]	inhibition at 100 µg/mL [4] [%]	inhibition at 100 µg/mL [5] [%]	cytotoxicity at 100 µg/mL ([6]; one spot 100 µg/ml) [%]	inhibition at 100 µg/mL ([6]; 100 µg/ml, supplement Table S1) [%]	inhibition at 100 µg/mL [7] [%]	inhibition at 100 µg/mL [8] [%]	Selectivity Index = IC50 of HSF/ IC50 of MCF7 [9]	IC50 ([9]; MTT, MCF7) [µg/mL]	Selectivity Index = IC50 of HSF/IC50 of HEPG2 [10]	IC50 ([10]; MTT, HEPG2) [µg/mL]	IC50 [11] [µg/mL]	inhibition at 100 µg/mL [12] [%]	other results
CC(=O)C1C(c2cccc([N+](=O)[O-])c2)c2c(C)nc(SCC(=O)Nc3cccc4ccccc34)c(C#N)c2CC1(C)O (stereo not drawn) [Compound 8a, 2-[(7-Acetyl-4-cyano-1,6-dimethyl-6-hydroxy-8-(3-nitrophenyl)−5,6,7,8-tetrahydro-isoquinolin-3-yl)thio]-N-(naphthalen-1-yl)acetamide]	56.1	60	25.9	38.5	72.4	59	56.9	46.2	59.6	1.6	50 ± 0.019 (≈ 86.1 µM)	0.95	88 ± 0.072 (≈ 152 µM)	84 (≈ 145 µM)	53.2	–
CC(=O)C1C(c2ccc([N+](=O)[O-])cc2)c2c(C)nc(SCC(=O)Nc3cccc4ccccc34)c(C#N)c2CC1(C)O (stereo not drawn) [Compound 8b, 2-[(7-Acetyl-4-cyano-1,6-dimethyl-6-hydroxy-8-(4-nitrophenyl)−5,6,7,8-tetrahydro-isoquinolin-3-yl)thio]-N-(naphthalen-1-yl)acetamide]	67.5	66.6	30.2	57.5	57.2	50	48.2	15.2	62	> 2	12 ± 0.056 (≈ 20.7 µM)	1.1	94 ± 0.82 (≈ 162 µM)	100 (≈ 172 µM)	41.7	Selectivity Index = IC50 of HSF/ IC50 of MCF7 ([9]; listed as 8B): 8.3
CCOC(=O)CSc1nc(C)c2c(c1C#N)CC(C)(O)C(C(C)=O)C2c1cccc([N+](=O)[O-])c1 (stereo not drawn) [Compound 4, Ethyl 2-[(7-acetyl-4-cyano-1,6-dimethyl-6-hydroxy-8-(3-nitrophenyl)−5,6,7,8-tetra-hydroisoquinolin-3-yl)thio]acetate]	56.8	62.1	27.5	53.8	76.3	50	49.4	47.2	66.8	2.1	47 ± 0.055 (≈ 97.2 µM)	1.2	80 ± 0.07 (≈ 165 µM)	100 (≈ 207 µM)	64.4	–
CC(=O)C1C(c2ccc([N+](=O)[O-])cc2)c2c(C)nc3sc(C(=O)Nc4cccc5ccccc45)c(N)c3c2CC1(C)O (stereo not drawn) [Compound 9b, 7-Acetyl-1-amino-N-(naphthalen-1-yl)−5,8-dimethyl-8-hydroxy-6-(4-Nitrophenyl)−6,7,8,9-tetrahydrothieno[2,3-c]isoquinoline-2-carboxamide]	55.6	70	35.7	30.2	55.2	58	56.2	45	58	1.1	80 ± 0.05 (≈ 138 µM)	0.98	87 ± 0.61 (≈ 150 µM)	86 (≈ 148 µM)	51.7	–
CC(=O)c1ccc(NC(=O)c2sc3nc(C)c4c(c3c2N)CC(C)(O)C(C(C)=O)C4c2cccc([N+](=O)[O-])c2)cc1 (stereo not drawn) [Compound 7a, 7-Acetyl-N-(4-acetylophenyl)−1-amino-5,8-dimethyl-8-hydroxy-6-(3-nitro-phenyl)−6,7,8,9-tetrahydrothieno[2,3-c]isoquinoline-2-carboxamide]	–	–	–	–	–	–	–	–	–	1.8	–	0.92	–	–	–	one spot concentration inhibition, HCT116 ([1]; percent inhibition): 59.7%; one spot concentration inhibition, HEPG2 ([2]; percent inhibition): 58.67%; one spot concentration inhibition, HUH7 ([3]; percent inhibition): 32.35%; one spot concentration inhibition, MG-63 ([4]; percent inhibition): 50.44%; one spot concentration inhibition, MCF7 ([5]; percent inhibition): 57.92%; one spot concentration inhibition, HSF ([6]; 100 µg/ml, supplement Table S1): 51.85%; Inhibition percent of HSF cell line ([6]; one spot 100 µg/ml): 55%; one spot concentration inhibition, A549 ([7]; percent inhibition): 46.81%; one spot concentration inhibition, H460 ([8]; percent inhibition): 59.87%; IC50 for MCF7 ± S.D ([9]; MTT, MCF7): 50 ± 0.031 µg/mL; IC50 for HEPG2 ± S.D ([10]; MTT, HEPG2): 97 ± 0.054 µg/mL; IC50 FOR HSF ± S.D. [11]: 90 µg/mL (≈ 157 µM); one spot concentration inhibition, CACO2 ([12]; percent inhibition): 58.2%
CC(=O)c1ccc(NC(=O)CSc2nc(C)c3c(c2C#N)CC(C)(O)C(C(C)=O)C3c2cccc([N+](=O)[O-])c2)cc1 (stereo not drawn) [Compound 6a, 2-[(7-Acetyl-4-cyano-1,6-dimethyl-6-hydroxy-8-(3-nitrophenyl)−5,6,7,8-tetra-hydroisoquinolin-3-yl)thio]-N-(4-acetylphenyl)acetamide]	58.1	59.5	38.6	45.8	66.4	56	53.5	20.3	63.5	> 2	21 ± 0.057 (≈ 36.7 µM)	–	> 100	89 (≈ 155 µM)	54.8	Selectivity Index = IC50 of HSF/ IC50 of MCF7 ([9]; listed as 6A): 4.2
CC(=O)C1C(c2ccc([N+](=O)[O-])cc2)c2c(C)nc(SCC#N)c(C#N)c2CC1(C)O (stereo not drawn) [Compound 5, 2-[(7-Acetyl-4-cyano-1,6-dimethyl-6-hydroxy-8-(4-nitrophenyl)−5,6,7,8-tetra-hydroisoquinolin-3-yl)thio]acetoonitriile]	58.9	68.2	35.5	55.7	67.6	70	66.8	55.2	66.6	2.1	33 ± 0.042 (≈ 75.6 µM)	0.73	97 ± 0.053 (≈ 222 µM)	71 (≈ 163 µM)	61.5	–
CC(=O)C1C(c2cccc([N+](=O)[O-])c2)c2c(C)[nH]c(=S)c(C#N)c2CC1(C)O (stereo not drawn) [Compound 2a, 7-Acetyl-4-cyano-1,6-dimethyl-6-hydroxy-8-(3-nitrophenyl)−5,6,7,8-tetra-hydroisoquinoline-3(2H)-thione]	62.3	61.3	27.4	41.9	74	48	46.2	42.4	55.3	> 2	35 ± 0.061 (≈ 88.1 µM)	1.2	82 ± 0.054 (≈ 206 µM)	100 (≈ 252 µM)	55.1	Selectivity Index = IC50 of HSF/ IC50 of MCF7 ([9]; listed as 2A): 2.8
CC(=O)C1C(c2cccc([N+](=O)[O-])c2)c2c(C)nc3sc(C(=O)Nc4nc5ccccc5s4)c(N)c3c2CC1(C)O (stereo not drawn) [Compound 10, 7-Acetyl-1-amino-N-(benzthiazol-2-yl)−5,8-dimethyl-8-hydroxy-6-(3-nitrophenyl)−6,7,8,9-tetrahydrothieno[2,3-c]isoquinoline-2-carboxamide]	59.2	55.2	21.8	46.7	75.4	56	54.7	47.4	63.3	–	> 100	–	> 100	89 (≈ 151 µM)	60.6	–
COc1cccc2c1C(=O)c1c(O)c3c(c(O)c1C2=O)C[C@@](O)(C(=O)CO)C[C@@H]3O[C@H]1C[C@H](N)[C@H](O)[C@H](C)O1 [Doxorubicin, reference compound]	70.9	58.9	52.8	63.8	74	60	58.9	32	72.9	18.1	4.58 ± 0.081 (≈ 8.43 µM)	20.1	4.13 ± 0.054 (≈ 7.6 µM)	83 (≈ 153 µM)	74.8	–
